# Assay results: ChEMBL document CHEMBL1156953, “Novel pyrrolyl 2-aminopyridines as potent and selective human beta-secretase (BACE1) inhibitors” (Bioorg Med Chem Lett, 2010)
# Assay: Dissociation constant, pKa of the compound
# Assay type: physicochemical
row,pKa,SMILES
1,6.86,Nc1cccc(Cn2c(-c3ccc(Oc4ccncc4)cc3)ccc2-c2ccccc2Cl)n1
2,6.86,Nc1cccc(Cn2c(-c3ccc(Oc4cccnc4)cc3)ccc2-c2ccccc2Cl)n1
3,6.86,Nc1cccc(Cn2c(-c3ccc(Oc4ccccc4)cc3)ccc2-c2ccccc2Cl)n1
4,6.86,Nc1cccc(Cn2c(-c3ccc(Oc4ccccn4)cc3)ccc2-c2ccccc2Cl)n1
5,6.86,Nc1cccc(Cn2c(-c3ccc(Oc4cncnc4)cc3)ccc2-c2ccccc2Cl)n1
6,6.86,Nc1cccc(Cn2c(-c3ccc(Oc4cnccn4)cc3)ccc2-c2ccccc2Cl)n1
7,6.86,Nc1cccc(Cn2c(-c3ccc(Oc4cccnn4)cc3)ccc2-c2ccccc2Cl)n1
8,6.86,Nc1cccc(Cn2c(-c3ccc(Oc4cccs4)cc3)ccc2-c2ccccc2Cl)n1
9,6.86,COc1ccc(-c2ccc(-c3ccccc3Cl)n2Cc2cccc(N)n2)cc1

# Second part, the compound before the results:
row,SMILES,pKa
1,N#CCCCOc1ccc(-c2ccc(-c3ccccc3Cl)n2Cc2cccc(N)n2)cc1,6.86
2,CCCCCOc1ccc(-c2ccc(-c3ccccc3Cl)n2Cc2ccc(NCCO)c(N)n2)cc1,6.86
3,CCCCCOc1ccc(-c2ccc(-c3ccccc3Cl)n2Cc2ccc(NCCCO)c(N)n2)cc1,6.86
4,CCCOc1ccc(-c2ccc(-c3ccccc3Cl)n2Cc2cccc(N)n2)cc1,6.86
5,CCCCOc1ccc(-c2ccc(-c3ccccc3Cl)n2Cc2cccc(N)n2)cc1,6.86
6,CCNC(=O)c1ccc(-c2ccc(-c3ccccc3)n2Cc2cccc(N)n2)cc1,6.86
7,CCCNC(=O)c1ccc(-c2ccc(-c3ccccc3)n2Cc2cccc(N)n2)cc1,6.86
8,CCCCNC(=O)c1ccc(-c2ccc(-c3ccccc3)n2Cc2cccc(N)n2)cc1,6.86
9,Nc1nc(Cn2c(-c3ccc(Oc4cncnc4)cc3)ccc2-c2ccccc2Cl)ccc1OCCO,6.86
10,Nc1nc(Cn2c(-c3ccc(Oc4cncnc4)cc3)ccc2-c2ccccc2Cl)ccc1NCCO,6.86
11,CCCCCCOc1ccc(-c2ccc(-c3ccccc3Cl)n2Cc2cccc(N)n2)cc1,6.86
12,C=CCNC(=O)c1ccc(-c2ccc(-c3ccccc3)n2Cc2cccc(N)n2)cc1,6.86
13,CC(C)NC(=O)c1ccc(-c2ccc(-c3ccccc3)n2Cc2cccc(N)n2)cc1,6.86
14,Nc1cccc(Cn2c(-c3ccccc3)ccc2-c2ccccc2)n1,6.86
15,Nc1cccc(Cn2c(-c3ccccc3)ccc2-c2ccc(C(=O)NC3CC3)cc2)n1,6.86
16,Nc1cccc(Cn2c(-c3ccccc3)ccc2-c2ccc(C(=O)NC3CCC3)cc2)n1,6.86
17,CCCCCOc1ccc(-c2ccc(-c3ccccc3Cl)n2Cc2cccc(N)n2)cc1,6.86
18,Nc1cccc(Cn2c(-c3ccc(Nc4cncnc4)cc3)ccc2-c2ccccc2Cl)n1,6.86
19,CCCCCOc1ccc(-c2ccc(-c3ccccc3Cl)n2Cc2ccc(OCCO)c(N)n2)cc1,6.86
20,CCCCCOc1ccc(-c2ccc(-c3ccccc3Cl)n2Cc2ccc(OCCCO)c(N)n2)cc1,6.86
